The test system of series [1] is MK-801-induced working memory deficit in rats. The series is described as follows: Radial arm maze (RAM) test, MK-801-induced working memory deficit. The series is classed as in vivo, rat. On the procedure:
RAM tests were performed using 9-week-old male Long-Evans rats as previously described with a minor modification. Each arm was 50 cm long, 10 cm wide and 40 cm high, and the maze was elevated 50 cm above the floor. Long-Evans rats were food-restricted to 85% of free-feeding body weight throughout the experimental period. Rats were well trained to collect pellets placed on the edge of each arm. The learning criterion for the testing session was defined as 2 errors or fewer for 2 consecutive days. In the testing session, each rat was placed on the maze facing the fixed arm at the start of the trial. The entry of rats into each arm was recorded in sequence until all pellets in the 8 arms were consumed, or 5 min had elapsed. […] Thirty min after dosing of vehicle or MK-801, rats were placed on the maze. Details are described in the Supplementary Information.
The experiment was performed using 9-week-old male Long-Evans rats as described previously (Zajaczkowski et al., 1996) with a minor modification. Each arm was 50 cm long, 10 cm wide and 40 cm high, and the maze was elevated 50 cm above the floor. After being fasted for 24 h, male Long-Evans rats were food-restricted to 85% of free-feeding body weight on the first day of exposure to the maze and throughout the experimental period. The experiment consists of two sessions, training and testing session. In the training session, rats were habituated to the maze and then trained. Reinforcement consisted of 3 food pellets (45 mg each) in the food cup was used. On the first day of habituation to the maze, reinforcements were placed near the entrance and at the mid-point of each arm. Three rats were placed on the maze at one time and allowed to explore and consume the pellets for 8 min. On the second day of habituation, each rat was placed on the maze and allowed 5 min to consume the pellets placed at the mid-point and in the food cup at the end of each arm. From the third day, reinforcement was placed in the food cup at the end of each arm. Rats were well trained to collect pellets placed on the edge of each arm. The learning criterion for the testing session was defined as 2 errors or less for two consecutive days. In the previous day of the testing session, baseline level of performance was qualified to confirm that rats completed collecting all pellets placed in the 8 arms with two errors or less. In the testing session, each rat was placed on the maze facing away from the experimenter and facing the fixed arm at the start of the trial. The entry of rats into each arm was recorded in sequence. Rats were allowed to explore until all pellets in the 8 arms were consumed, or 5 min had elapsed. Entry into an arm previously chosen was counted as an error. […] […] Thirty min after dosing of vehicle or MK-801, rats were placed on the maze. Data were indicated as the mean ± SEM in the testing session.

Series [2] has as its system AMPA-R. The series is described as follows: Whole-cell patch clamp recording in acute PFC slices (AMPA-R-mediated EPSPs). The conditions noted are these: for Synaptic EPSP response: summary grade. The arrangement: key to Synaptic EPSP response: -: No effect or slight effect; +: Potent; ++: Very potent. In kind it is cell-based, rat. On the procedure:
Coronal PFC slices were prepared from male Sprague–Dawley rats (10- to 14-day-old). The slices including layer V PFC pyramidal neurons were perfused at a flow rate of 1–2 ml/min with recording aCSF containing the following: 124 mM NaCl, 5 mM KCl, 1.2 mM NaH2PO4, 1.5 mM MgCl2, 2.5 mM CaCl2, 10 mM glucose, 24 mM NaHCO3 bubbled with carbogen (95% O2; 5% CO2). Current clamp recordings at holding potential of approximately − 65 mV with constant current were carried out at 32–33 °C using a pipette filled with an intracellular solution consisting of: 140 mM K-gluconate, 4 mM KCl, 10 mM HEPES, 0.2 mM EGTA, 4 mM MgATP, 0.3 mM Na2GTP, pH 7.3 with KOH in the presence of bicuculline (20 μM), CGP52422 (10 μM), and APV (50 μM) to block GABAA and B and NMDA receptors, respectively. Methods are described in the Supplementary Information.
Coronal prefrontal cortex (PFC) slices were prepared from male Sprague-Dawley rats (10- to 14-day-old). Animals were sacrificed following acute decapitation, and their brain was quickly removed and placed in an ice-cold modified artificial cerebrospinal fluid (aCSF) of the following composition: 92 mM N-methyl-D-glucamine (NMDG), 2.5 mM KCl, 1.25 mM NaH2PO4, 30 mM NaHCO3, 20 mM HEPES, 25 mM glucose, 2 mM thiourea, 5 mM Na-ascorbate, 3 mM Na-pyruvate, 0.5 mM CaCl2, and 10 mM MgSO4. The pH of the solution was titrated to 7.3-7.4 with concentrated HCl. Coronal slices were cut at a thickness of 300 μm with using a linear slicer PRO7 (Dosaka EM, Kyoto, Japan). Slices were initially recovered for ≤ 15 min at 34°C and then transferred to a holding chamber containing HEPES holding aCSF (92 mM NaCl, 2.5 mM KCl, 1.25 mM NaH2PO4, 30 mM NaHCO3, 20 mM HEPES, 25 mM glucose, 2 mM thiourea, 5 mM Na-ascorbate, 3 mM Na-pyruvate, 2 mM CaCl2 and 2 mM MgSO4) at room temperature for at least 1 h before starting the recording. The slices were then transferred to the recording chamber mounted on a FN1 microscope (Nikon, Tokyo, Japan), in which they were submerged and perfused at a flow rate of 1-2 ml/min with recording aCSF containing the following: 124 mM NaCl, 5 mM KCl, 1.2 mM NaH2PO4, 1.5 mM MgCl2, 2.5 mM CaCl2, 10 mM glucose, 24 mM NaHCO3. All aCSF solutions were continuously bubbled with carbogen (95% O2; 5% CO2). Differential interference contrast (DIC) microscopy (C10639, Hamamatsu, Japan) was used to visualize pyramidal neurons in the PFC. Patch pipettes (5-6 MΩ) were prepared from borosilicate capillary glass using a micropipette puller PC-10 (NARISHIGE, Tokyo, Japan). Current clamp recordings were carried out at 32-33°C using a pipette filled with intracellular solution consisting of: 140 mM K-gluconate, 4 mM KCl, 10 mM HEPES, 0.2 mM EGTA, 4 mM MgATP, 0.3 mM Na2GTP, pH 7.3 with KOH in the presence of bicuculline (20 μM), CGP52422 (10 μM), and APV (50 μM) to block GABAA and B and NMDA receptors, respectively. Signals were recorded using a Multiclamp 700B amplifier (Molecular Devices, LLC, Orleans Drive Sunnyvale, CA), digitized using a Digidata 1440A interface board, filtered between 2 kHz, sampled at 10 kHz, and analyzed with pClamp10 software. Layer V PFC pyramidal neurons were recorded at holding potential of approximately –65 mV with constant current. A hyperpolarizing step (–20 pA) prior to each stimulation was used to monitor any changes in access resistance. Postsynaptic potentials were evoked by constant current single stimulation pulses (100 μs, 10-100 μA) delivered with a 20-s interstimulus interval using monopolar stimulating electrodes positioned in layer I.
Background: The patch-clamp technique gives a direct electrical read-out from membranes.

The target of the next series is GluA2o LBD (Homo sapiens, UniProt P42262). The arrangement: method as in earlier work. The conditions noted are these: read-out: IC50, binding affinity to the GluA2o LBD by SPA using [3H]-HBT1; cited from earlier work.
Series [3] has as its system AMPA-R. The arrangement: key to Single effect on Ca2+ level: -: No effect or slight effect; +: Potent; ++: Very potent. The following applies: cited from earlier work; for Intracellular Ca2+ level, Agonistic effect @30 μM: absence of AMPA, % of 5 μM AMPA + 10 μM HBT1 response; for EC50: in the presence of 5 μM AMPA, read-out: Intracellular Ca2+ level, Potentiation EC50; for Single effect on Ca2+ level: summary grade.

Series [4] relates to AMPA-R. The arrangement: key to Single effect on AMPA-R currents: -: No effect or slight effect; +: Potent; ++: Very potent. The following applies: cited from earlier work; for AMPA-R currents, Agonistic effect @30 μM: absence of AMPA, % of AMPA (100 μM)-induced steady-state response; for EC50: in the presence of 1 μM AMPA, read-out: AMPA-R currents, Potentiation EC50; for Single effect on AMPA-R currents: summary grade.

The next series concerns naïve rats. The conditions noted are these: cited from earlier work; for NORT (effective doses): summary.
Series [5] relates to rats. The conditions noted are these: cited from earlier work.
In series [6] the test system is rats. The arrangement: method as in PMID 30209408. The following applies: 10 and 30 mg/kg, p.o.; cited from earlier work.
The subject of series [7] is MK-801-induced working memory deficit in rats. Also noted: method as in earlier work. The conditions noted are these: summary, fasted conditions; cited from earlier work.
Details of series [8]: method as in earlier work. The following applies: cited from earlier work.

Molecules are shown by their SMILES. Entries after “also recorded” stand apart in the source; their conditions may differ. Read-outs that look alike come from different tables or passages of the source.

Sequence of GluA2o LBD (P42262 with tags, fused parts or gaps): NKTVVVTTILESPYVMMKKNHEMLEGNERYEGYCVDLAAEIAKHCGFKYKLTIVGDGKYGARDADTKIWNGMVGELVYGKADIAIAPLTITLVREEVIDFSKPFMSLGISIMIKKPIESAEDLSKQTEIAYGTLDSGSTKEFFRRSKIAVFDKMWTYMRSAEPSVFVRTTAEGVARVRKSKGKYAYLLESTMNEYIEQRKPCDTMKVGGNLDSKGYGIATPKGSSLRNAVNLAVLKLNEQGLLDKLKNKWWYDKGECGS

For orientation: IC50 means the midpoint of a concentration-inhibition curve. The EC50 is the midpoint of the concentration-response curve. Regarding `CC(C)S(=O)(=O)NC[C@H](C)c1ccc(-c2ccc(C#N)cc2)cc1` [LY451646], in series [1] (0.03 to 1 mg/kg, p.o., MK-801 0.08 mg/kg, s.c.), the “Working memory in the RAM test” value was “neither LY451646 at 0.03 to 1 mg/kg, p.o. nor AMPA at 0.1 to 3 mg/kg, i.p. improve”. Also, the “RAM (effective doses)” value in series [1] (summary) was “No effect”. In addition, in the series with AMPA-R [2], the “Membrane potentials of recorded neurons” value is reported as “did not increase” and the “Synaptic EPSP response” value was “+”. In addition, the Suprathreshold response entry in the series on AMPA-R [2] (30 μM for 10 min) is recorded as “enhanced the suprathreshold response”. In the series on AMPA-R [2] (0.3 to 30 μM), the “Suprathreshold polysynaptic EPSPs (number of spikes, EPSP duration)” value is reported as “moderate potentiation”. Besides, the IC50 on GluA2o LBD was 0.39 µM. Further, in the series on AMPA-R [3], the “Intracellular Ca2+ level, Agonistic effect @30 μM” value was 88%; the EC50 is 0.78 µM; the “Single effect on Ca2+ level” value is given as “++”. In addition, in the series with AMPA-R [4], the “AMPA-R currents, Agonistic effect @30 μM” value was 39%; the EC50 was 1.9 µM; the “Single effect on AMPA-R currents” value is “+”. Besides, the “Dose improving visual learning and memory in NOR test” value in the series on naïve rats (p.o., rats) was at least 1 mg/kg. Further, the “NORT (effective doses)” value in the series with naïve rats is reported as “Effective (1, 3)”. Further, in the series on rats [5], the “Margin based on AUCplasma” value is given as 4.0 fold and the “Margin based on plasma Cmax” value is on record as 3.4 fold. In addition, the Seizure entry in the series on rats [6] was “induced seizure”.

As for `O=S1(=O)CCN2C=CC=C(c3ccc(Oc4ccccc4)cc3)C2=N1` [TAK-137, 9-(4-phenoxyphenyl)-3,4-dihydropyrido[2,1-c][1,2,4]thiadiazine 2,2-dioxide], in the series on AMPA-R [2] (3 μM, 10 min), the “Polysynaptic EPSP duration and evoked spikes” value is on record as “potently enhanced; also recorded: robustly enhanced”. In addition, in the series with AMPA-R [2], the “Synaptic EPSP response” value was “++”. Besides, at GluA2o LBD, the IC50 was 0.065 µM. Further, in the series on AMPA-R [3], the “Intracellular Ca2+ level, Agonistic effect @30 μM” value is 7.6%; the EC50 was 0.42 µM; the “Single effect on Ca2+ level” value was “─”. In addition, in the series on AMPA-R [4], the “AMPA-R currents, Agonistic effect @30 μM” value is listed as 6.4%; the EC50 is 1.4 µM; the “Single effect on AMPA-R currents” value was “─”. The “NORT (effective doses)” value in the series with naïve rats is “Effective (0.1, 1)”. Moreover, the “RAM (effective doses)” value in series [7] was “Effective (0.2, 0.6) ^\”. Also, in the series with rats [5], the “Margin based on AUCplasma” value is reported as 122 fold and the “Margin based on plasma Cmax” value was 42 fold. For the same molecule, in series [8], the “Brain concentration under fasted conditions, relative to fed conditions” value is given as 71% and the “Plasma concentration under fasted conditions, relative to fed conditions” value was 67%.
